Measured values: article PMC6779874, “ACT001, a novel PAI-1 inhibitor, exerts synergistic effects in combination with cisplatin by inhibiting PI3K/AKT pathway in glioma” (Cell Death & Disease, 2019)

How the values were obtained:
[1] = molecular target: T1, PAI-1 (plasminogen activator inhibitor-1) (Homo sapiens, UniProt P05121); test: SPR (Biacore […], immobilized PAI-1); also CETSA/ITDR in cell extract; type: binding
T1 construct: gene SERPINE1; Recombinant human PAI-1

[2] = molecular target: T1, PAI-1 (plasminogen activator inhibitor-1); test: SPR (Biacore […], immobilized PAI-1); also CETSA in cell extract; prodrug that releases MCL; type: binding

T1 sequence (P05121 24-402): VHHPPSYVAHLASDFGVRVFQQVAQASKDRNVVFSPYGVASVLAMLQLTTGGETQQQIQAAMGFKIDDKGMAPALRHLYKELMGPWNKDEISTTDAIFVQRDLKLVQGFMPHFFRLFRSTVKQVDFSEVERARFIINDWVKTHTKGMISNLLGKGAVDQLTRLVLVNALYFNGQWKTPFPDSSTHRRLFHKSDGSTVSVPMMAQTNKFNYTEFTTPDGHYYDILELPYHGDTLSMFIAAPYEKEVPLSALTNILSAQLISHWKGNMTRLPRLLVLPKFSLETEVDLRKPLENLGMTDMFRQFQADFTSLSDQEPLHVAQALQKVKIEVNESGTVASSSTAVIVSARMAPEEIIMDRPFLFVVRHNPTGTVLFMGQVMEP

`C=C1C(=O)O[C@H]2[C@H]1CCC(C)=C1CC[C@@](C)(O)[C@@H]12` [MCL] was tested, and the Kd [1] was 10.8 µM.

With `CC1=C2CC[C@@](C)(O)[C@@H]2[C@H]2OC(=O)[C@@H](CN(C)C)[C@@H]2CC1` [ACT001] the Kd [2] was 2310 µM.
